In patent US12358915B2, “METTL3 inhibitory compounds” (STORM THERAPEUTICS LTD., priority 2019, dated 2025):

biological target: T1, METTL3/14 (Homo sapiens, UniProt Q86U44); assay: METTL3/14 methyltransferase assay (METTL3_14 RFMS, RapidFire mass spectrometry); type: biochemical; conditions: 5 nM METTL3/14, 0.2 μM RNA substrate, 0.5 μM SAM; lower limit of the assay IC50=5 nM; Compounds 1-62; read-out: METTL3_14 RFMS IC50;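 also: recombinant His-tagged METTL3 with FLAG-tagged METTL14 from baculovirus, SAH product quantified by mass spectrometry against isotope-labelled internal standards, 60 min at room temperature, scaled between no-RNA and DMSO-only wells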
T1 construct: The enzyme used was full-length his-tagged METTL3; His; made in house
T1 sequence (Q86U44 whole entry): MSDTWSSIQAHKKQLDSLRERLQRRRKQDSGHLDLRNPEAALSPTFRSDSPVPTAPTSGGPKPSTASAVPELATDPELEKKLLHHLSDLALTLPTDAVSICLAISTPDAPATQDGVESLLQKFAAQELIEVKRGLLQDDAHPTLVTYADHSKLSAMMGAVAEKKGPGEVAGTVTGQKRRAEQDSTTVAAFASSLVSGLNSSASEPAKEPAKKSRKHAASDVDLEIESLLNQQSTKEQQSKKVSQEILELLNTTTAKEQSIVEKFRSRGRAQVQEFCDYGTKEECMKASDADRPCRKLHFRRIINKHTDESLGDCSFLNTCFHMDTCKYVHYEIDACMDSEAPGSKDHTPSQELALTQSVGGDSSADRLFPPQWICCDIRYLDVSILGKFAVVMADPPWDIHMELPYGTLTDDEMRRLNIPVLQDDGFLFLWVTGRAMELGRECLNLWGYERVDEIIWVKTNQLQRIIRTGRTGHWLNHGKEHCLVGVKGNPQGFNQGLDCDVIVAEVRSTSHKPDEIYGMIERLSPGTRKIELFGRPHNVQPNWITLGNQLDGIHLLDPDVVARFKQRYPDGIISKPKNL
T1 sequence (Q9HCE5 whole entry partner): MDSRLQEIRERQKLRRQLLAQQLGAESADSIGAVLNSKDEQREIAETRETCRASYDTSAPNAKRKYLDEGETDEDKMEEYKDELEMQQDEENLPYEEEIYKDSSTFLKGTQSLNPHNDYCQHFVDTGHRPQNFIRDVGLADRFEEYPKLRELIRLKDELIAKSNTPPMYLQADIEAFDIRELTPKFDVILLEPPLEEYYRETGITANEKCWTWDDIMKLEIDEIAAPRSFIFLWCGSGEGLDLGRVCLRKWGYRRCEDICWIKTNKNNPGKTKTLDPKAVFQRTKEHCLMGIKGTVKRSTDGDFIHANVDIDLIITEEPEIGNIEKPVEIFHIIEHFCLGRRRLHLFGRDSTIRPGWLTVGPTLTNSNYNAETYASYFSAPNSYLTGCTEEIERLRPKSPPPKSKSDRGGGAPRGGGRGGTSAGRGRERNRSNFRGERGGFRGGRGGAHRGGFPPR

Structure (SMILES) | IC50
Cc1ccn2cc(CNC(=O)c3cc(Br)cc4[nH]ncc34)nc2c1 [Compound 11, 6-bromo-N-({7-methylimidazo[1,2-a]pyridin-2-yl}methyl)-1H-indazole-4-carboxamide] | 4100 nM
O=C(NCc1cn2cc(CNCCc3ccccc3)ccc2n1)c1cc(=O)n2ccccc2n1 [Compound 53, 4-oxo-N-[(6-{[(2-phenylethyl)amino]methyl}imidazo[1,2-a]pyridin-2-yl)methyl]-4H-pyrido[1,2-a]pyrimidine-2-carboxamide] | 38 nM
O=C(NCc1cn2cc(-c3cccc(Cl)c3)ccc2n1)c1cccc2[nH]ncc12 [Compound 36] | 3910 nM
O=C(NCc1cn2cc(C(O)c3ccccc3)ccc2n1)c1cc(=O)n2ccccc2n1 (centres unmarked) [Compound 56, N-({6-[hydroxy(phenyl)methyl]imidazo[1,2-a]pyridin-2-yl}methyl)-4-oxo-4H-pyrido[1,2-a]pyrimidine-2-carboxamide] | 945 nM
O=C(NCc1cn2cc(F)ccc2n1)c1cc(=O)n2ccccc2n1 [Compound 22, N-({6-fluoroimidazo[1,2-a]pyridin-2-yl}methyl)-4-oxo-4H-pyrido[1,2-a]pyrimidine-2-carboxamide] | 2210 nM
Cc1ccc2nc(Cc3nnc(-c4cccc5[nH]ncc45)o3)cn2c1 [Compound 62, 2-(1H-indazol-4-yl)-5-[(6-methylimidazo[1,2-a]pyridin-2-yl)methyl]-1,3,4-oxadiazole] | 8760 nM

Continued, values first:

IC50 | Structure (SMILES)
700 nM | C=Cc1ccn2cc(CNC(=O)c3cc(=O)n4ccccc4n3)nc2c1 [Compound 60, N-({7-ethenylimidazo[1,2-a]pyridin-2-yl}methyl)-4-oxo-4H-pyrido[1,2-a]pyrimidine-2-carboxamide]
1470 nM | NCc1ccc2nc(CNC(=O)c3cccc4[nH]ncc34)cn2c1 [Compound 39, N-{[6-(aminomethyl)imidazo[1,2-a]pyridin-2-yl]methyl}-1H-indazole-4-carboxamide]
9350 nM | O=C(c1cccc2[nH]ncc12)N1CC=C(c2cn3ccccc3n2)C1 [Compound 31, 4-(3-{imidazo[1,2-a]pyridin-2-yl}-2,5-dihydro-1H-pyrrole-1-carbonyl)-1H-indazole]
6260 nM | O=C(NCc1cn2cc(CO)ccc2n1)c1cccc2[nH]ncc12 [Compound 42]
6610 nM | Cc1cccn2cc(CNC(=O)c3cc(=O)n4ccccc4n3)nc12 [Compound 27, N-({8-methylimidazo[1,2-a]pyridin-2-yl}methyl)-4-oxo-4H-pyrido[1,2-a]pyrimidine-2-carboxamide]

same assay, conditions: 5 nM METTL3/14, 0.2 μM RNA substrate, 0.5 μM SAM; lower limit of the assay IC50=5 nM; Compounds 63-265; read-out: METTL3_14 RFMS IC50

Structure (SMILES) | IC50
CC(C)(C)C1CCN(Cc2ccc3nc(CNC(=O)c4cc(=O)n5ccccc5n4)cn3c2)CC1 [Compound 161, N-({6-[(4-tert-butylpiperidin-1-yl)methyl]imidazo[1,2-a]pyridin-2-yl}methyl)-4-oxo-4H-pyrido[1,2-a]pyrimidine-2-carboxamide] | 99.1 nM
CC1(C)CCC(CNCc2ccc3nc(CNC(=O)c4cc(=O)n5ccccc5n4)cn3c2)O1 (centres unmarked) [Compound 143, N-{[6-({[(5,5-dimethyloxolan-2-yl)methyl]amino}methyl)imidazo[1,2-a]pyridin-2-yl]methyl}-4-oxo-4H-pyrido[1,2-a] pyrimidine-2-carboxamide] | 136 nM
O=C(NCc1cn2cc(CNCc3cncs3)ccc2n1)c1cc(=O)n2ccccc2n1 [Compound 99, 4-oxo-N-{[6-({[(1,3-thiazol-5-yl)methyl]amino}methyl)imidazo[1,2-a]pyridin-2-yl]methyl}-4H-pyrido[1,2-a] pyrimidine-2-carboxamide] | 318 nM
O=C(NCc1cn2cc(C(F)(F)F)ccc2n1)c1cc(=O)n2ccccc2n1 [Compound 65, 4-oxo-N-{[6-(trifluoromethyl)imidazo[1,2-a]pyridin-2-yl]methyl}-4H-pyrido[1,2-a]pyrimidine-2-carboxamide] | 6600 nM
CC(NCC1CCCCC1)c1ccc2nc(CNC(=O)c3cc(=O)n4ccccc4n3)cn2c1 (centres unmarked) [Compound 189, N-[(6-{1-[(cyclohexyl-methyl)amino]ethyl}imidazo [1,2-a]pyridin-2-yl)methyl]-4-oxo-4H-pyrido[1,2-a]pyrimidine-2-carboxamide] | 132 nM
O=C(NCc1cn2cc(CNCC3CCCCC3)ccc2n1)c1cc(Br)cc2[nH]ncc12 [Compound 187, 6-bromo-N-[(6-{[(cyclohexylmethyl)amino]methyl}imidazo[1,2-a]pyridin-2-yl)methyl]-1H-indazole-4-carboxamide] | 44.1 nM
CCCNCc1ccc2nc(CNC(=O)c3cc(=O)n4ccccc4n3)cn2c1 [Compound 149, 4-oxo-N-({6-[(propylamino)methyl]imidazo [1,2-a]pyridin-2-yl}methyl)-4H-pyrido[1,2-a] pyrimidine-2-carboxamide] | 40.2 nM
O=C(NCc1cn2cc(CNCC3CCOC3)ccc2n1)c1cc(=O)n2ccccc2n1 (centres unmarked) [Compound 120, 4-oxo-N-{[6-({[(oxolan-3-yl)methyl]amino}methyl)imidazo[1,2-a]pyridin-2-yl]methyl}-4H-pyrido [1,2-a]pyrimidine-2-carboxamide] | 24.7 nM
O=C(NCc1cn2cc(CN3CCc4ccccc4C3)ccc2n1)c1cc(=O)n2ccccc2n1 [Compound 131, 4-oxo-N-({6-[(1,2,3,4-tetrahydroisoquinolin-2-yl)methyl]imidazo [1,2-a]pyridin-2-yl}methyl)-4H-pyrido [1,2-a]pyrimidine-2-carboxamide] | 87.7 nM
O=C(NCc1cn2cc(CNCc3cccnc3)ccc2n1)c1cc(=O)n2ccccc2n1 [Compound 70, 4-oxo-N-{[6-({[(pyridin-3-yl)methyl]amino}methyl)imidazo [1,2-a]pyridin-2-yl]methyl}-4H-pyrido[1,2-a]pyrimidine-2-carboxamide] | 143 nM
CC(C)(C)OC(=O)NCCc1ccc2nc(CNC(=O)c3cc(=O)n4ccccc4n3)cn2c1 [Compound 67, tert-butyl N-(2-{2-[({4-oxo-4H-pyrido[1,2-a]pyrimidin-2-yl}formamido)methyl]imidazo [1,2-a]pyridin-6-yllethyl) carbamate] | 8140 nM

Results, then the molecule that gave them:

IC50 | Structure (SMILES)
309 nM | O=C(NCc1cn2cc(CNCC3CCCCC3)ccc2n1)c1cc(=O)c2cc(Cl)ccc2o1 [Compound 172, 6-chloro-N-[(6-{[(cyclohexylmethyl)amino]methyl}imidazo[1,2-a]pyridin-2-yl)methyl]-4-oxo-4H-chromene-2-carboxamide]
36.5 nM | O=C(NCc1cn2cc(CNCC3CC3)ccc2n1)c1cc(=O)n2ccccc2n1 [Compound 84, N-[(6-{[(cyclopropyl-methyl)amino]methyl}imidazo [1,2-a]pyridin-2-yl)methyl]-4-oxo-4H-pyrido [1,2-a]pyrimidine-2-carboxamide]
131 nM | O=C(NCc1cn2cc(CNCCOC(F)(F)F)ccc2n1)c1cc(=O)n2ccccc2n1 [Compound 94, 4-oxo-N-{[6-({[2-(trifluoromethoxy)ethyl]amino}methyl)imidazo [1,2-a]pyridin-2-yl]methyl}-4H-pyrido[1,2-a] pyrimidine-2-carboxamide]
513 nM | O=C(NCc1cn2cc(CNCC3CCCNC3)ccc2n1)c1cc(=O)n2ccccc2n1 (centres unmarked) [Compound 239, 4-oxo-N-{[6-({[(piperidin-3-yl)methyl]amino}methyl)imidazo[1,2-a]pyridin-2-yl]methyl}-4H-pyrido[1,2-a]pyrimidine-2-carboxamide]
179 nM | Cc1ccc2c(=O)cc(C(=O)NCc3cn4cc(CNCC5CCCCC5)ccc4n3)oc2c1 [Compound 181, N-[(6-{[(cyclohexylmethyl)amino]methyl}imidazo[1,2-a]pyridin-2-yl)methyl]-7-methyl-4-oxo-4H-chromene-2-carboxamide]
45.6 nM | O=C(NCc1cn2cc(CNC3(C4CCCCC4)CC3)ccc2n1)c1cc(=O)n2ccccc2n1 [Compound 98, N-[(6-{[(1-cyclohexyl-cyclopropyl)amino]methyl}imidazo[1,2-a]pyridin-2-yl)methyl]-4-oxo-4H-pyrido [1,2-a]pyrimidine-2-carboxamide]
889 nM | O=C(NCc1cn2cc(CNCC3CCCCC3)ccc2n1)c1cc(=O)c2ccc(F)cc2o1 [Compound 180, N-[(6-{[(cyclohexylmethyl)amino]methyl}imidazo [1,2-a]pyridin-2-yl)methyl]-7-fluoro-4-oxo-4H-chromene-2-carboxamide]

same assay, conditions: 5 nM METTL3/14, 0.2 μM RNA substrate, 0.5 μM SAM; lower limit of the assay IC50=5 nM; Compounds 266-351; read-out: METTL3_14 RFMS IC50

Structure (SMILES) | IC50
CC1(C)CCN(Cc2ccc3nc(CNC(=O)c4cc(=O)c5c(F)cccc5o4)cn3c2)CC1 [Example 310, N-[[6-[(4,4-dimethyl-1-piperidyl)methyl]imidazo[1,2-a]pyridin-2-yl]methyl]-5-fluoro-4-oxo-chromene-2-carboxamide] | 186 nM
OCc1ccc2nc(Cn3cc(-c4cc(F)cc5[nH]ncc45)nn3)cn2c1 [Example 317, [2-[[4-(6-fluoro-1H-indazol-4-yl)triazol-1-yl]methyl]imidazo[1,2-a]pyridin-6-yl]methanol] | 462 nM

Next, values leading:

IC50 | Structure (SMILES)
7.68 nM | O=C(NCc1cn2cc(CNCC3CC4C=CC3C4)ccc2n1)c1cc(=O)n2ccccc2n1 (centres unmarked) [Compound 346, N-[(6-{[({bicyclo[2.2.1]hept-5-en-2-yl}methyl)amino]methyl}imidazo[1,2-a]pyridin-2-yl)methyl]-4-oxo-4H-pyrido[1,2-a]pyrimidine-2-carboxamide]
62.2 nM | CC1(C)CC(CNCc2ccc3nc(CNC(=O)c4cc(=O)n5ccccc5n4)cn3c2)C1 [Compound 291, N-[[6-[[(3,3-dimethylcyclobutyl)methylamino]methyl]imidazo[1,2-a]pyridin-2-yl]methyl]-4-oxo-pyrido[1,2-a]pyrimidine-2-carboxamide]

same assay, conditions: read-out: IC50

Structure (SMILES) | IC50
O=C(NCc1cn2cc(CNCCc3ccccc3)ccc2n1)c1cc(=O)n2ccccc2n1 [Compound 53, 4-oxo-N-[(6-{[(2-phenylethyl)amino]methyl}imidazo[1,2-a]pyridin-2-yl)methyl]-4H-pyrido[1,2-a]pyrimidine-2-carboxamide] | 27 nM

same assay, conditions: read-out: METTL3_14 RFMS IC50

Structure (SMILES) | IC50
O=C(NCc1cn2cc([C@H]3COC[C@@H](C4CCCCC4)N3)ccc2n1)c1cccc2[nH]ncc12 (racemic) [Example 231, N-({6-[(3S,5R)-5-cyclohexylmorpholin-3-yl]imidazo[1,2-a]pyridin-2-yl}methyl)-1H-indazole-4-carboxamide] | 1220 nM
